Experimental data reported in patent US9834514B2, “Antibiotic sensitivity-restoring and photosensitive agents” (New Mexico Tech Research Foundation, priority 2015, dated 2017).
Converted amounts (≈) assume the structure as drawn. Like-named read-outs stand apart in the source and are kept apart here.

How the values were obtained:
[1] = test system: S. aureus (ATCC 29213); test: MIC against drug sensitive S. aureus; type: cell-based; conditions: Staphylococcus aureus, ATCC29213; ATCC 29213; read-out: S. aureus MIC
[2] = test system: VRE; test: MIC against VRE; type: cell-based, Enterococcus faecalis; conditions: Enterococcus, TABLE 23, read-out: VRE MIC
Method: In a 12×75 mm borosilicate glass culture tube, 1 mL of cell suspension was added. Then, compound 7 was added to the cells, and the samples were mixed using a vortex mixer. […] The samples were incubated overnight at 37° C. on a rotary shaking incubator at 100 rpm.

[3] = test system: S. aureus (ATCC 29213); test: microbe, parasite or virus in culture; type: cell-based; conditions: for MIC: Staphylococcus aureus
Method: Each mixture was incubated at 37° C. on a rotary shaking incubator for about 16 hours. MTT was then added to assess the viability of the cells (at 10% well volume). […] The cells were then streaked onto a TSA plate and incubated overnight at 37° C. These steps were repeated to reach a total of 30 exposures.

[4] = MIC against MRSA isolates; type: cell-based, S. aureus; conditions: Staphylococcus aureus
Method: The MICs of S. aureus ATCC 33591, BAA-44, BAA-1707, BAA-1717, BAA-1720, BAA-1747, BAA-1754, BAA-1761, BAA-1763, BAA-1764, and BAA-1766 were measured using a cell concentration of about 5×10^5 colony forming units (CFU)/mL. In a 96-well microtiter plate, two-fold dilutions were made of each drug (starting with 100 μM) in 100 μL of a cell suspension in trypticase soy broth (TSB). The samples were incubated overnight at 37° C. on a rotary shaking incubator set at 100 revolutions per minute (rpm) and were visually inspected for turbidity. A 20% well-volume of 3-(4,5-dimethylthiazol-2-yl)-2,5-diphenyltetrazolium bromide (MTT reagent, 5 mg/mL) was added, and the samples were incubated for about 20 minutes. The MICs were determined as the lowest concentration at which full visual inhibition was observed by the unaided eye.

[5] = test system: Klebsiella pneumoniae (CRE, ATCC BAA-1705); test: MIC against CRE; type: cell-based
Method: TABLE 27 details the individual MIC values of compounds 1, 7, 8, 9, 10, 11, PMB, PME, and light against CRE.
The MICs of PME and compounds 8-11 were determined against Klebsiella pneumoniae (CRE, ATCC BAA-1705). […] After the incubation with PME, the compounds were added at a concentration of 20 μM, and the samples were further incubated. At specific time points, the samples were taken and diluted ten-fold in media. Ten microliters of each dilution was then drip-streaked onto an agar plate and incubated overnight at 37° C. Colony counts were then performed and the CFU/mL were calculated.

[6] = test system: E. coli; test: MIC against E. coli; type: cell-based
Text: TABLE 18 details the obtained MIC values for cells treated with compound 1, light, PMB, and Polymyxin E (PME) against E. coli.

[7] = test system: K. pneumoniae ATCC BAA-2341; test: MIC of PMB and PME; type: cell-based; conditions: K. pneumoniae ATCC BAA-2341 (so in the source)
Text: (§1) TABLE 25 details the MICs of PMB and PME against E. cloacae and K. pneumoniae.

[8] = test system: E. cloacae ATCC BAA-2341; test: MIC of PMB and PME; type: cell-based
Text: as §1

[9] = test system: P. aeruginosa; test: MIC against P. aeruginosa; type: cell-based
Text: Only compound 1 was able to decrease the CFU/mL when used in conjunction with white light to treat P. aeruginosa.

[10] = test system: A. baumannii (ATCC 15151); test: MIC against A. baumannii; type: cell-based
Method: TABLE 28 details the individual MIC values of compounds 1, 7, 8, 9, 10, 11, PMB, PME, and light against A. baumannii.
The MICs of PME and compounds 8-11 were determined against A. baumannii (ATCC 15151). […] After incubating the cells with PME, a compound (5 μM) was added, and the samples were further incubated at 37° C. At specific time points, samples were taken and diluted ten-fold in media. Ten microliters of each dilution was then drip-streaked onto an agar plate and incubated overnight at 37° C. Colony counts were then performed, and the CFU/mL were calculated.

[11] = test system: Klebsiella pneumoniae (CRE, ATCC BAA-1705); test: Cell killing of CRE with compounds in presence or absence of PMB (CFU/mL); type: cell-based; conditions: PMB alone
Method: Klebsiella pneumoniae (CRE, ATCC BAA-1705) was grown in TSB overnight at 37° C. and diluted to about 5×10^5 CFU/mL using a McFarland Latex Turbidity standard (0.5). One mL of the cell suspension was transferred to a glass culture test tube. PMB was added to the cell suspension resulting in a final concentration of 200 μg/mL of PMB. The cell suspension was incubated at 37° C. on a rotary shaking incubator at 150 rpm for 4 hours. Compounds 1, 7, 8, 9, 10, and 11 were added to the cell suspension, resulting in a concentration of 20 μM for each of the compounds. The cell suspensions containing the compounds were incubated at 37° C. on a rotary shaking incubator at 150 rpm for 4 hours. Each sample was diluted tenfold to a 10^−5 dilution. Ten 10 microliters of each dilution from each sample was dripped onto a TSA plate and allowed to streak down the plate. The agar plates were incubated at 37° C. for 18-24 hours. Colony counts were performed and CFU/mL values were calculated.
The MICs of PMB and compounds 7-11 were determined against Klebsiella pneumoniae (CRE, ATCC BAA-1705). […] After the incubation with PMB, each of the compounds was added at a concentration of 20 μM, and the samples were incubated for an additional 18 hours. A sample was taken and diluted ten-fold in media. Ten microliters of each dilution was then drip-streaked onto an agar plate and incubated overnight at 37° C. Colony counts were then performed and the concentrations of cells (CFU/mL) were calculated.

Compound: Cc1onc(-c2ccccc2)c1C(=O)N[C@@H]1C(=O)N2[C@@H]1SC(C)(C)[C@@H]2C(=O)O [Oxacillin, reference compound]
- MIC [1]: 0.5 µg/mL (≈ 1.25 µM)
- MIC [2]: 20 to 40 µg/mL (≈ 49.8 to 99.6 µM)
- Resistance Evolved [3]: Yes
- MIC ([3]; ATCC29213, read-out: Final MIC Apr. 16, 2015): > 8 µM
- MIC ([3]; ATCC29213, read-out: Initial MIC Mar. 10, 2015): 0.25 µM (≈ 0.1 µg/mL)
- MIC ([4]; antibiotics, MRSA isolate ATCC 33591): > 100 µg/mL
- MIC ([4]; antibiotics, MRSA isolate ATCC BAA-44): 400 µg/mL (≈ 996 µM)
- MIC ([4]; antibiotics, MRSA isolate ATCC BAA-1707): < 3.1 µg/mL
- MIC ([4]; antibiotics, MRSA isolate ATCC BAA-1717): 200 µg/mL (≈ 498 µM)
- MIC ([4]; antibiotics, MRSA isolate ATCC BAA-1720): > 100 µg/mL
- MIC ([4]; antibiotics, MRSA isolate ATCC BAA-1747): 6.3 µg/mL (≈ 15.7 µM)
- MIC ([4]; antibiotics, MRSA isolate ATCC BAA-1754): 50 µg/mL (≈ 125 µM)
- MIC ([4]; antibiotics, MRSA isolate ATCC BAA-1761): 6.3 µg/mL (≈ 15.7 µM)
- MIC ([4]; antibiotics, MRSA isolate ATCC BAA-1763): 50 µg/mL (≈ 125 µM)
- MIC ([4]; antibiotics, MRSA isolate ATCC BAA-1764): 25 µg/mL (≈ 62.3 µM)
- MIC ([4]; antibiotics, MRSA isolate ATCC BAA-1766): < 6.3 µg/mL
- MIC ([4]; read-out: MRSA MIC, MRSA (ATCC BAA-44), TABLE 21): 400 µg/mL (≈ 996 µM)

Compound: Polymyxin E [PME, reference compound]
- CRE MIC [5]: 4 µg/mL
- E. Coli MIC [6]: 2 µg/mL
- MIC [7]: 16 µg/mL
- MIC [8]: 16 µg/mL
- MIC [9]: 2 µg/mL
- A. baumannii MIC [10]: 0.5 µg/mL

Compound: polymyxin B [PMB, reference compound]
- CRE MIC [5]: 4 µg/mL
- E. Coli MIC [6]: 2 µg/mL
- PMB @ 0.2 μg/mL [11]: 1.8 × 10^6 CFU/mL
- MIC [8]: 4 µg/mL
- A. baumannii MIC [10]: 4 µg/mL
